Among the data in patent publication US5658906A, “Cysteine protease and serine protease inhibitors” (Cephalon, Inc., priority 1996, dated 1997) are inhibition and kinact/KI values, retold here.

One experiment has as its target T1, α-chymotrypsin (Bos taurus, UniProt P00766).
T1 construct: purchased Sigma Chem. Co. C-3142
In words: Inhibition of the serine protease α-chymotrypsin (Succ-Ala-Ala-Pro-Phe-AMC hydrolysis). The format is biochemical. The following applies: pH 7.5, 0.03 mM substrate. How it is done: Additionally,because α-chymotrypsin is not a calcium sensitive enzyme and is constituitively active, following addition of inhibitor stocks to the 96 well plates, 100 ul of a 2 fold concentrated stock of enzyme in dilution buffer was first added and the reaction started by addition of 100 ul of a 2 fold concentrated stock of substrate in assay buffer. Substrate hydrolysis was monitored every 5 minutes up to 30 minutes using a Fluoroskan II ([…]).

Another experiment has as its target T2, Calpain I (Homo sapiens, UniProt P07384).
T2 construct: Calpain I was purified from human red blood cells; from tissue; host or cells: human red blood cells (packed, outdated)
T2 sequence (P07384 1-714): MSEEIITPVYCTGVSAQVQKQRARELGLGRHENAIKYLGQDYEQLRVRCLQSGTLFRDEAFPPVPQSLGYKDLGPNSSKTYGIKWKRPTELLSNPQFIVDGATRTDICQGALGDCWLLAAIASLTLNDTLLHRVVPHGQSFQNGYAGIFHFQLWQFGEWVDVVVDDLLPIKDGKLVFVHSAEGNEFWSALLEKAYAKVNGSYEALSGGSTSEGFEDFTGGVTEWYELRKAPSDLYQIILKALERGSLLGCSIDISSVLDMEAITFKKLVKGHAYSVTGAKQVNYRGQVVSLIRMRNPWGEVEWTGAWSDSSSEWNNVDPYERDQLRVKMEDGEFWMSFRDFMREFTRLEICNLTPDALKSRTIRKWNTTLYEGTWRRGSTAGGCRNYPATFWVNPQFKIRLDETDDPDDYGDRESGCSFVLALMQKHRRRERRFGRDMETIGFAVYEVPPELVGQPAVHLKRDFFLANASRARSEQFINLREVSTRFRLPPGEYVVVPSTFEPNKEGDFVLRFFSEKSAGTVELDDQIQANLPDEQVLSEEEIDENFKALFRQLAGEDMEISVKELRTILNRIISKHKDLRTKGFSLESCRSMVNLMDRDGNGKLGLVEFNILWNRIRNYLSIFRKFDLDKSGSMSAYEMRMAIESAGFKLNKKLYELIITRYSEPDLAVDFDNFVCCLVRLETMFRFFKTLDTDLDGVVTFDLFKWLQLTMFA
T2 sequence (P04632 1-268 partner): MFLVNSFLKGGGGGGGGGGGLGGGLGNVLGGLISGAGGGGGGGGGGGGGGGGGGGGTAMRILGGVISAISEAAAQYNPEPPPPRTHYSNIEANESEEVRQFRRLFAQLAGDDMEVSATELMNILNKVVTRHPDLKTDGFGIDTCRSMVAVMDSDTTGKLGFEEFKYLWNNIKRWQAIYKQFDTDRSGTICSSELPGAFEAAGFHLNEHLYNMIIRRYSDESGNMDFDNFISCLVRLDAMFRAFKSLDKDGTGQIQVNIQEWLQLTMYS
Briefly: Inhibition and rate of inactivation of calpain I (Succ-Leu-Tyr-MNA hydrolysis). Format: biochemical. Conditions: mean of three or more independent analyses, corrected for substrate, k2 = kapp(1+[S]/Km), read-out: k2 (second order rate constant of inactivation), A = Calpain I. The protocol:
To evaluate inhibitory activity of our compounds, stocks (40 times concentrated) of each compound to be tested were prepared in 100% anhydrous dimethyl sulfoxide (DMSO) and 5 μl of each inhibitor preparation was aliquoted into each of three wells of a 96 well plate. Calpain I was purified from human red blood cells using a modification of the method described by Lee, W. J. et al. (Biochem. Internatl. (1990)22(1): 163-171). Briefly, 3 units of packed outdated red blood cells were washed 3× by repeated centrifugation at 500 rpm for 10 minutes through 900 mls of 0.9% NaCl. Cells were lysed in 20 mM Tris/1 mM EDTA/1 mM EGTA/5 mM mercaptoethanol (Buffer A) and centrifuged for 1 hour at 12,000 rpm in a GSA rotor using a Sorval centrifuge. The supernatant was collected and applied to a DEAE-sepharose FF column equilibrated in Buffer A+25 mM NaCl. After washing the column in Buffer A+25 mM NaCl, the bound protein was eluted at 117 ml/hr with a 25 mM to 150 mM NaCl linear gradient in Buffer A collecting 200, 10 mL fractions. Two μl of every fifth fraction was applied to nitrocelluose using a dot blot apparatus and calpain containing fractions identified by Western analysis. For detection of calpain, nitrocellulose sheets were first blocked in 5% Blotto (5% Carnation instant milk/10 mM Tris/[…]150 mM NaCl) for 30 minutes, followed by incubation for 1 hour in antibody directed against Calpain I (rabbit anti-human calpain I polyclonal sera, 1:1000 dilution in 5% Blotto). After three 5 minutes washes in 10 mM Tris/150 mM NaCl/0.05% Tween 20 the nitrocellulose was incubated for 1 hour in secondary alkaline phosphatase conjugated antibody (Biorad Cat#170-6518 1:2000 in 5% Blotto). After three 5 minutes washes in 10 mM Tris/150 mM NaCl/0.05% Tween 20 and 1 wash in 10 mM Tris/150 mM NaCl the nitrocellulose was incubated for up to 2 hours in a colorimetric substrate solution (Biorad Alkaline Phosphatase Substrate conjugate kit, cat#170-6432). The reaction was stopped by washing in water. After fractions containing calpain, and those in between, were pooled, solid ammonium sulfate was added to achieve a 30% solution and the mixture stirred for 1 hour at 4° C. Following collection of the precipitate by centrifugation for 1 hour at 4° C. at 12K rpm in a GSA rotor, the supernatant was collected and brought to 45% in ammonium sulfate. After stirring for 1 hour at 4° C., centrifugation was repeated. The supernatant was discarded and the precipitate resuspended in approximately 7 mls and dialyzed overnight at 4° C. against Buffer A+50 mM NaCl. The sample was then applied to a S300 gel filtration column preequilibrated in Buffer A+50 mM NaCl, washed and eluted at a flow rate of 20 ml/hr, collecting 200, 4 ml fractions. The peak of calpain was determined by assaying aliquots of every fifth fraction for enzyme activity monitored by the hydrolysis of a fluorogenic dipeptide substrate as described below. The peak fractions were pooled and the enzyme preparation used to test compounds for inhibitory activity. As an alternate to enzyme isolated from tissue sources, recombinant human calpain I has also been used to monitor compounds for inhibitory activity.
The foregoing enzyme preparation was diluted into assay buffer (i.e., 50 mM Tris, 50 mM NaCl, 1 mM EDTA, 1 mM EGTA, and 5 mM β-mercaptoethanol, pH 7.5 including 0.2 mM Succ-Leu-Tyr-MNA) and 175 μl aliquoted into the same wells containing the independent inhibitor stocks as well as to positive control wells containing 5 μl DMSO, but no compound. To start the reaction, 20 μl of 50 mM CaCl2 in assay buffer was added to all wells of the plate, excepting three, which were used as background signal baseline controls. Substrate hydrolysis was monitored every 5 minutes for a total of 30 minutes using Flouroskan II (ex=340 nm; em=430 nm). Substrate hydrolysis in the absence of inhibitor was linear for up to 15 minutes. […]

The target in another experiment is T3, Cathepsin B (Homo sapiens, UniProt P07858).
T3 construct: purchased Calbiochem 219364
In words: Inhibition and rate of inactivation of cathepsin B (Cbz-Phe-Arg-AMC hydrolysis). Format: biochemical. Conditions: pH 6.0, 0.1 mM substrate, read-out: k2 (second order rate constant of inactivation), C = Cathepsin B. The protocol:
Additionally, the order of reagents added to the plate was altered because both enzymes are constitutively active. Following inhibitor addition to the plates appropriate 2× concentrated stock dilutions of the enzyme preparations were made in assay buffer and 100 ul added to each well. The assay was initiated by addition of 100 ul of 2× concentrated stock dilution of substrate in assay buffer. Substrate hydrolysis was monitored using a Fluroskan II (ex=390 nm; em=460 nm).
Inhibition of enzyme activity was calculated as the percent decrease in the rate of substrate hydrolysis in the presence of inhibitor (.upsilon.i) relative to the rate in its absence (.upsilon.o). Comparison between .upsilon.o and .upsilon.i was made within the linear range for substrate hydrolysis. For screening, compounds were tested at 10 μM. Compounds having ≥50% inhibition at 10 μM were considered active. Apparent second order rate constants were determined from analysis of reaction progress curves under pseudo-first order conditions. Each determination represents the mean of three or more independent single cuvette analyses continually monitored via a Perkin-Elmer LS50B spectrofluorimeter. The rate of inhibition of hydrolysis was obtained by fitting the curve to the exponential equation (1):
y=Ae^-k.spsb.obs·t +B (1)
where y (Pt) is the product formed at time t. A and B are constants. A, the amplitude of the reaction, is given by [Po -P.varies. ] and B (=P.varies.) is the maximal product formed when the reaction is […]. This was corrected for the presence of equation (2): […]

Experiment [1] relates to calpain I in Molt-4 cells (α-spectrin breakdown products). Briefly: Inhibition of calpain activation in intact Molt-4 cells (calpain-generated spectrin breakdown products). The following applies: Homo sapiens, calcium and ionophore (ionomycin), read-out: % Inhibition of BDPs (10 μM). The format is cell-based.

Molecules are shown by their SMILES.

Broadly, the inhibition is the drop in the measured response relative to a control, in per cent. Take `Cc1cc2nnn(OCC(=O)[C@H](Cc3ccccc3)NC(=O)[C@H](CC(C)C)NC(=O)OCc3ccccc3)c2cc1Cl` [Example 11, 1-[N-[N-Benzyloxycarbonyl-L-leucyl]-3S-4-phenyl-3-amino-2-oxobutyloxy]-6'-chloro-5'-methylbenzotriazole]: the inhibition at 10 µM at α-chymotrypsin came out at 100%. Besides, the kinact/KI at Calpain I amounted to 98000 M⁻¹ s⁻¹; on Cathepsin B it was 28000 M⁻¹ s⁻¹.

As to `CC(C)C[C@H](NC(=O)OCc1ccccc1)C(=O)N[C@@H](Cc1ccccc1)C(=O)COn1nnc2ccc(C(F)(F)F)cc21` [Example 7, 1-[N-[N-Benzyloxycarbonyl-L-leucyl]-3S-4-phenyl-3-amino-2-oxobutyloxy]-6'-trifluoromethylbenzotriazole], 10 µM produced 99% inhibition on α-chymotrypsin. Also, the kinact/KI at Calpain I came out at 160000 M⁻¹ s⁻¹; at Cathepsin B it was 18000 M⁻¹ s⁻¹.

On α-chymotrypsin, `CC(C)CC(CC(=O)C1c2ccccc2Oc2ccccc21)C(=O)N[C@@H](Cc1ccccc1)C(=O)COn1nnc2ccccc21` (stereo partly drawn) [Example 39, 1-[N-[2-(2-Methylpropyl)-1,4-dioxo-4-(xanthen-9-yl)butyl]-3S-3-amino-2-oxo-4-phenylbutyloxy]benzotriazole] gave an inhibition at 10 µM of 100%. For the same compound, the kinact/KI at Calpain I was 46000 M⁻¹ s⁻¹; on Cathepsin B, 55000 M⁻¹ s⁻¹.

`Cc1cccc2c1nnn2OCC(=O)[C@H](Cc1ccccc1)NC(=O)[C@H](CC(C)C)NC(=O)OCc1ccccc1` [Example 12, 1-[N-[N-Benzyloxycarbonyl-L-leucyl]-3S-4-phenyl-3-amino-2-oxobutyloxy]-4'-methylbenzotriazole]: 10 µM produced 94% inhibition on α-chymotrypsin. In addition, at Calpain I, the kinact/KI is 46000 M⁻¹ s⁻¹.

With `CC(C)C[C@H](NC(=O)OCc1ccccc1)C(=O)N[C@@H](Cc1ccccc1)C(=O)COn1nnc2ccc(F)cc21` [Example 10, 1-[N-[N-Benzyloxycarbonyl-L-leucyl]-3S-4-phenyl-3-amino-2-oxobutyloxy]-6'-fluorobenzotriazole], at α-chymotrypsin, at 10 µM the inhibition was 89%. Further, the kinact/KI on Calpain I amounted to 50000 M⁻¹ s⁻¹.

As for `COc1ccc2nnn(OCC(=O)[C@H](Cc3ccccc3)NC(=O)[C@H](CC(C)C)NC(=O)OCc3ccccc3)c2c1` [Example 9, 1-[N-[N-Benzyloxycarbonyl-L-leucyl]-3S-4-phenyl-3-amino-2-oxobutyloxy]-6'-methoxybenzotriazole], 10 µM produced 83% inhibition against α-chymotrypsin. Besides, the kinact/KI is 125000 M⁻¹ s⁻¹ on Calpain I and 52000 M⁻¹ s⁻¹ on Cathepsin B.

For `CC(C)C[C@H](NC(=O)OCc1ccccc1)C(=O)N[C@@H](Cc1ccccc1)C(=O)COn1nnc2ccc(Cl)cc21` [Example 8, 1-[N-[N-Benzyloxycarbonyl-L-leucyl]-3S-4-phenyl-3-amino-2-oxybutyloxy]-6'-chlorobenzotriazole], the kinact/KI at Calpain I stood at 101000 M⁻¹ s⁻¹. Also, the inhibition at 10 µM in experiment [1] is 57%.

At α-chymotrypsin, `CC(C)CC(CC(=O)C1c2ccccc2Oc2ccccc21)C(=O)N[C@@H](CC(C)C)C(=O)COn1nnc2ccccc21` (stereo partly drawn) [Example 40] returned an inhibition at 10 µM of 100%. Also, the kinact/KI on Calpain I worked out at 2700 M⁻¹ s⁻¹; on Cathepsin B it was 48000 M⁻¹ s⁻¹.

For the compound `CC(C)C[C@H](NC(=O)OCc1ccccc1)C(=O)N[C@@H](Cc1ccccc1)C(=O)COn1nnc2ccc(-c3ccccc3)cc21` [Example 15, 1-[N-[N-Benzyloxycarbonyl-L-leucyl]-3S-4-phenyl-3-amino-2-oxybutyloxy]-6'-phenylbenzotriazole], the kinact/KI was found to be 77000 M⁻¹ s⁻¹ at Calpain I and 16000 M⁻¹ s⁻¹ at Cathepsin B.

With `CC(C)C[C@H](NC(=O)OCc1ccccc1)C(=O)N[C@@H](Cc1ccccc1)C(=O)COn1nnc2c(F)c(F)c(F)c(F)c21` [Example 16, 1-[N-[N-Benzyloxycarbonyl-L-leucyl]-3S-4-phenyl-3-amino-2-oxybutyloxy]-4',5',6',7'-tetrafluorobenzotriazole], the kinact/KI at Calpain I came out at 93000 M⁻¹ s⁻¹. Moreover, the inhibition at 10 µM in experiment [1] came to 64%.

As to `CC(C)C[C@H](NC(=O)OCc1ccccc1)C(=O)N[C@@H](Cc1ccccc1)C(=O)COn1nnc2ncccc21` [Example 19, 1-[N-[N-Benzyloxycarbonyl-L-leucyl]-3S-4-phenyl-3-amino-2-oxybutyloxy]-(1H)-triazolo[4,5-b]pyridine], the kinact/KI on Calpain I turned out to be 57000 M⁻¹ s⁻¹. For the same compound, the inhibition at 10 µM in experiment [1] came out at 54%.
